In patent US4871774A, “Medical treatment” (The Boots Company PLC, priority 1987, dated 1989):

Assays:
[1] = tested on: brain DOPAC (turnover of dopamine); test: Turnover of dopamine in rodent brains by determination of DOPAC concentrations (mouse); format: in vivo, mouse (CD1); conditions: whole brain, 10 mg/kg oral, 2 h
Description: (§1) (7) Measurement of the turnover of dopamine in rodent brains by determination of DOPAC concentrations following drug administration
(§2) Inhibition of dopamine reuptake in the brain reduces the rate at which dopamine is synthesised and metabolised (the turnover rate). This can be assessed by measuring the amount of the dopamine metabolite DOPAC (dihydroxyphenylacetic acid) which accumulates in the brains of rats and mice. In addition, the administration of probenecid blocks active transport of DOPAC out of the brain. The subsequent rise in brain DOPAC concentrations is attenuated by drugs which inhibit dopamine reuptake.
One group of animals was killed two hours later. […] Aliquots (50 μl) of the clear supernatants were then injected automatically into the chromatographic system for the separation and quantification of DOPAC.
High pressure liquid chromatography (HPLC) combined with electrochemical detection (ECD) was employed to assay DOPAC. […] The controller was set at 20 nA full-scale and output from the cell recorded using a Spectra-Physics 4100 automatic computing integrator. Quantification of DOPAC was effected by the computing integrator after calibration of the HPLC-ECD system using DOPAC of known concentration and including isoprenaline as an internal standard. […]

[2] = tested on: brain DOPAC (turnover of dopamine); test: Turnover of dopamine in rodent brains by determination of DOPAC concentrations (rat); format: in vivo, rat (Sprague-Dawley); conditions: 10 mg/kg oral, 2 h
Description: as §1, §2
One group of animals was killed two hours later. An additional group was administered probenecid (200 mg/kg i.p.; Sigma Chemical Co.) 30 minutes after the drug and then killed after a further 90 minutes. The animals were killed by decapitation and brains were rapidly removed and dissected on an ice-chilled porcelain plate. They were cut longitudinally along the midline; one half was retained for whole brain analysis while the striatum was dissected from the other. Tissues were immediately frozen in liquid N2 and stored over dry ice (-80° C.) until assay. Whole brain tissue was homogenised in 5 volumes 0.4M perchloric acid (containing 0.01% (w/v) Na2 S2 O3, 0.1% (w/v) EDTA) and striata in 600 μl using a Polytron (setting 6; 20 seconds) fitted with a microprobe (PT-7). Samples were then centrifuged at 30,000×g (whole brain samples) or at 3,500×g (striata) using a microfuge (Beckman) set up to take 1200 μl polypropylene tubes. Aliquots (50 μl) of the clear supernatants were then injected automatically into the chromatographic system for the separation and quantification of DOPAC.
High pressure liquid chromatography (HPLC) combined with electrochemical detection (ECD) was employed to assay DOPAC. A mobile phase (0.1M CH3 OH (84:16%) containing 0.1% octanesulphonic acid, 0.1% EDTA and 0.01% Na2 S2 O3) was delivered by a Dupont 870 pump module at a flow-rate of 1.0 ml/min to a reverse-phase analytical column (25×0.4cm) and guard column (both packed with 5 μm Spherisorb ODS 2) maintained at 45° C. in a thermostatically controlled cabinet. Automatic sample injection was provided by a WISP 710B module (Waters Associates) and ECD was performed using a Bioanalytical Systems LC4A controller and cell, with a glassy carbon electrode maintained at +0.65 v versus a Ag-AgCl reference electrode. The controller was set at 20 nA full-scale and output from the cell recorded using a Spectra-Physics 4100 automatic computing integrator. Quantification of DOPAC was effected by the computing integrator after calibration of the HPLC-ECD system using DOPAC of known concentration and including isoprenaline as an internal standard. […]

SMILES: CC(C)CC(N(C)C)C1(c2ccc(Cl)cc2)CCC1.Cl.O (stereo not drawn) [N,N-dimethyl-1-[1-(4-chlorophenyl)cyclobutyl]-3-methylbutylamine hydrochloride monohydrate]
- Brain DOPAC Levels ([1]; A (drug alone), control 74 ± 5): 54 ± 3 ng/g wet wt
- Brain DOPAC Levels ([1]; B (with probenecid 200 mg/kg i.p.), control 116 ± 8): 54 ± 3 ng/g wet wt
- Brain DOPAC Levels ([2]; A (drug alone), striatum, control 921 ± 56): 601 ± 17 ng/g wet wt
- Brain DOPAC Levels ([2]; A (drug alone), whole brain, control 62 ± 5): 36 ± 4 ng/g wet wt
- Brain DOPAC Levels ([2]; B (with probenecid 200 mg/kg i.p.), striatum, control 1325 ± 79): 920 ± 70 ng/g wet wt
- Brain DOPAC Levels ([2]; B (with probenecid 200 mg/kg i.p.), whole brain, control 169 ± 3): 130 ± 9 ng/g wet wt
